In PubChem BioAssay AID330 (DTP/NCI, 2004):
Where “and” joins values, the source holds several entries; their conditions need not be identical. Identical values can stand only once. Toxic doses and inconclusive results are not listed.

System: P388 leukemia ip, CD2F1 mice, survival T/C
Experiment: NCI In Vivo Anticancer Drug Screen. Data for tumor model P388 Leukemia (intraperitoneal) in CD2F1 (CDF1) mice
Conditions: endpoint: median survival time, higher = longer survival
How it was run: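 Mice carrying the transplanted tumor received test compound or vehicle. Survival was recorded in each group, and the value is the treated-group measurement divided by that of the vehicle-treated control group.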

[1] = dose: 50.0 mg/kg/injection, schedule: Q01DX005 (ip), vehicle: saline with Tween-80
[2] = dose: 100.0 mg/kg/injection, schedule: Q01DX005 (ip), vehicle: saline with Tween-80
[3] = dose: 50.0 mg/kg/injection, schedule: Q01DX005 (ip), vehicle: Klucel (hydroxypropylcellulose) (HPC)
[4] = dose: 100.0 mg/kg/injection, schedule: Q01DX005 (ip), vehicle: Klucel (hydroxypropylcellulose) (HPC)
[5] = dose: 240.0 mg/kg/injection, schedule: Q01DX005 (ip), vehicle: Klucel (hydroxypropylcellulose) (HPC)

`CCN(CC)c1nc(N(CC)CC)c2[nH]cnc2n1` was tested, and the T/C (dose: 12.5 mg/kg/injection, schedule: Q01DX005 (ip), vehicle: saline with Tween-80) was 102 % of control, the T/C (dose: 25.0 mg/kg/injection, schedule: Q01DX005 (ip), vehicle: saline with Tween-80) was 100 % of control and the T/C [1] was 98 % of control and 105 % of control. For the same compound, the T/C [2] was 105 % of control.

With `COc1ccc2ccccc2c1C1=CC(c2ccccc2)C(C(=O)Cc2ccccc2)C(=O)N1` (stereo not given) the T/C (dose: 100.0 mg/kg/injection, schedule: Q04DX003 (ip), vehicle: saline with Tween-80) was 101 % of control, the T/C (dose: 200.0 mg/kg/injection, schedule: Q04DX003 (ip), vehicle: saline with Tween-80) was 92 % of control and the T/C (dose: 400.0 mg/kg/injection, schedule: Q04DX003 (ip), vehicle: saline with Tween-80) was 101 % of control.

In the case of `COC(=O)C1=C(C2=C(C(=O)OC)CCC2)CCC1`, the T/C (dose: 100.0 mg/kg/injection, schedule: Q04DX002 (ip), vehicle: saline with Tween-80) is reported as 93 % of control, the T/C (dose: 200.0 mg/kg/injection, schedule: Q04DX002 (ip), vehicle: saline with Tween-80) is reported as 97 % of control and the T/C (dose: 400.0 mg/kg/injection, schedule: Q04DX002 (ip), vehicle: saline with Tween-80) is reported as 100 % of control.

With `COc1ccc(CSC(=S)Nc2cccc(C(F)(F)F)c2)cc1` the T/C (dose: 50.0 mg/kg/injection, schedule: Q01DX009 (ip), vehicle: saline) was 97 % of control, the T/C (dose: 50.0 mg/kg/injection, schedule: Q01DX009 (ip), vehicle: suspension in saline) was 90 % of control and the T/C (dose: 100.0 mg/kg/injection, schedule: Q01DX009 (ip), vehicle: saline) was 101 % of control. The T/C (dose: 200.0 mg/kg/injection, schedule: Q01DX009 (ip), vehicle: saline) was 118 % of control and the T/C (dose: 200.0 mg/kg/injection, schedule: Q01DX009 (ip), vehicle: suspension in saline) was 99 % of control.

In the case of `C[Si](C)(C)C#CCO`, the T/C [1] is reported as 101 % of control, the T/C [2] is reported as 100 % of control and the T/C (dose: 200.0 mg/kg/injection, schedule: Q01DX005 (ip), vehicle: saline with Tween-80) is reported as 105 % of control.

In the case of `CN1CCN(CC(=O)c2c(-c3ccccc3)[nH]c3ccccc23)CC1`, the T/C (dose: 100.0 mg/kg/injection, schedule: Q04DX003 (ip), vehicle: saline) is reported as 101 % of control, the T/C (dose: 200.0 mg/kg/injection, schedule: Q04DX003 (ip), vehicle: saline) is reported as 105 % of control and the T/C (dose: 400.0 mg/kg/injection, schedule: Q04DX003 (ip), vehicle: saline) is reported as 97 % of control.

For `CCCC[S][Sn]([CH2]CCC)([CH2]CCC)[S]CCCC`, the T/C (dose: 0.75 mg/kg/injection, schedule: Q01DX009 (ip), vehicle: saline with Tween-80) was 121 % of control and the T/C (dose: 3.0 mg/kg/injection, schedule: Q01DX009 (ip), vehicle: saline with Tween-80) was 152 % of control.

In the case of `O=C(Cc1nc2ccccc2[nH]1)NNC(=S)NC1CCCCC1`, the T/C [3] is reported as 87 % of control and the T/C [4] is reported as 88 % of control.

With `CC1(C)CC[C@]2(C(=O)O)CC[C@]3(C)C(=CC[C@@H]4[C@@]5(C)C[C@H](O)[C@H](O)[C@@](C)(C(=O)O)[C@@H]5CC[C@]43C)[C@@H]2C1` the T/C (dose: 1.1 mg/kg/injection, schedule: Q01DX005 (ip), vehicle: Klucel (hydroxypropylcellulose) (HPC)) was 91 % of control, the T/C (dose: 2.12 mg/kg/injection, schedule: Q01DX005 (ip), vehicle: Klucel (hydroxypropylcellulose) (HPC)) was 89 % of control and the T/C (dose: 4.25 mg/kg/injection, schedule: Q01DX005 (ip), vehicle: Klucel (hydroxypropylcellulose) (HPC)) was 100 % of control and 91 % of control. For the same compound, the T/C (dose: 8.5 mg/kg/injection, schedule: Q01DX005 (ip), vehicle: Klucel (hydroxypropylcellulose) (HPC)) was 88 % of control and 90 % of control, the T/C (dose: 17.0 mg/kg/injection, schedule: Q01DX005 (ip), vehicle: Klucel (hydroxypropylcellulose) (HPC)) was 92 % of control and 93 % of control and the T/C (dose: 34.0 mg/kg/injection, schedule: Q01DX005 (ip), vehicle: Klucel (hydroxypropylcellulose) (HPC)) was 87 % of control.

With `CC1(C)OC2C(COC(c3ccccc3)(c3ccccc3)c3ccccc3)OC(n3ccc(=O)[nH]c3=O)C2O1` (stereo not given) the T/C [3] was 97 % of control, the T/C [4] was 89 % of control and the T/C (dose: 200.0 mg/kg/injection, schedule: Q01DX005 (ip), vehicle: Klucel (hydroxypropylcellulose) (HPC)) was 88 % of control.

`CN1C(=S)C(=N)OC1c1ccccc1F` (stereo not given) was tested, and the T/C (dose: 60.0 mg/kg/injection, schedule: Q01DX005 (ip), vehicle: Klucel (hydroxypropylcellulose) (HPC)) was 106 % of control, the T/C (dose: 120.0 mg/kg/injection, schedule: Q01DX005 (ip), vehicle: Klucel (hydroxypropylcellulose) (HPC)) was 105 % of control and the T/C [5] was 103 % of control.

With `O=C(Nc1cccc2nsnc12)c1ccc(C(=O)Nc2cccc3nsnc23)cc1` the T/C (dose: 0.46 mg/kg/injection, schedule: Q01DX005 (ip), vehicle: Klucel (hydroxypropylcellulose) (HPC)) was 97 % of control, the T/C (dose: 0.93 mg/kg/injection, schedule: Q01DX005 (ip), vehicle: Klucel (hydroxypropylcellulose) (HPC)) was 96 % of control and the T/C (dose: 1.87 mg/kg/injection, schedule: Q01DX005 (ip), vehicle: Klucel (hydroxypropylcellulose) (HPC)) was 98 % of control. For the same compound, the T/C (dose: 30.0 mg/kg/injection, schedule: Q01DX005 (ip), vehicle: Klucel (hydroxypropylcellulose) (HPC)) was 86 % of control and the T/C [5] was 98 % of control.

In the case of `COc1cccc2c1c(=O)c1cc([N+](=O)[O-])ccc1n2C`, the T/C (dose: 100.0 mg/kg/injection, schedule: Q01DX001 (ip), vehicle: saline with Tween-80) is reported as 100 % of control, the T/C (dose: 200.0 mg/kg/injection, schedule: Q01DX001 (ip), vehicle: saline with Tween-80) is reported as 97 % of control and the T/C (dose: 400.0 mg/kg/injection, schedule: Q01DX001 (ip), vehicle: saline with Tween-80) is reported as 86 % of control.
